Assay results reported in PMC9329436, “Optimization of the 4-anilinoquin(az)oline scaffold as epidermal growth factor receptor (EGFR) inhibitors for chordoma utilizing a toxicology profiling assay platform” (Scientific Reports, 2022).
Where two headings read alike, the source gives them in different places.

Columns and labels:
Assay type in all cases: biochemical
[1] = target: 320 wild-type protein kinases (Homo sapiens, UniProt P12931); details: kinase SRC (GST-HIS-tag), singlicate
Source text: (§1) Table S4. Profiling of two compounds at two concentrations against 320 wild-type protein kinases; singlicate measurement; Residual activities (% of control).

[2] = target: T1, 320 wild-type protein kinases (Homo sapiens, UniProt Q99759); details: singlicate
T1 sequence (Q99759 1-626): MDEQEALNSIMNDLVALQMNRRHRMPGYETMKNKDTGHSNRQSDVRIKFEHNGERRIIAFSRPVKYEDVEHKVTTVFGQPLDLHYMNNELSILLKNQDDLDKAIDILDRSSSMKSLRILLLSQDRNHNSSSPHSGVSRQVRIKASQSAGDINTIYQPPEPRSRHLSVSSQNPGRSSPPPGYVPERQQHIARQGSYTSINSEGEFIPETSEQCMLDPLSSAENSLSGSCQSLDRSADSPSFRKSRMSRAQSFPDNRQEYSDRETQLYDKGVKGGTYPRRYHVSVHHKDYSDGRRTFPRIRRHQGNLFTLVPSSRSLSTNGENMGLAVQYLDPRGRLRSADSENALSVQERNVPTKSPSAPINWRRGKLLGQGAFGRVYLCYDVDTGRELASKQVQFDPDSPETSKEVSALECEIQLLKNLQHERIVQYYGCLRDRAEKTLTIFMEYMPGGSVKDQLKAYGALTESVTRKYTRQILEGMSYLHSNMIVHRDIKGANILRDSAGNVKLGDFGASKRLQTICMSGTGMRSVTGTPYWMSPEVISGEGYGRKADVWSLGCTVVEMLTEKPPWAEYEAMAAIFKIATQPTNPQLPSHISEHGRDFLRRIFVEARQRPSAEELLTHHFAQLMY
Source text: as §1

[3] = target: 320 wild-type protein kinases (Homo sapiens, UniProt P41279); details: COT, singlicate
Sequence of 320 wild-type protein kinases (Homo sapiens, UniProt P41279) (P41279 whole entry): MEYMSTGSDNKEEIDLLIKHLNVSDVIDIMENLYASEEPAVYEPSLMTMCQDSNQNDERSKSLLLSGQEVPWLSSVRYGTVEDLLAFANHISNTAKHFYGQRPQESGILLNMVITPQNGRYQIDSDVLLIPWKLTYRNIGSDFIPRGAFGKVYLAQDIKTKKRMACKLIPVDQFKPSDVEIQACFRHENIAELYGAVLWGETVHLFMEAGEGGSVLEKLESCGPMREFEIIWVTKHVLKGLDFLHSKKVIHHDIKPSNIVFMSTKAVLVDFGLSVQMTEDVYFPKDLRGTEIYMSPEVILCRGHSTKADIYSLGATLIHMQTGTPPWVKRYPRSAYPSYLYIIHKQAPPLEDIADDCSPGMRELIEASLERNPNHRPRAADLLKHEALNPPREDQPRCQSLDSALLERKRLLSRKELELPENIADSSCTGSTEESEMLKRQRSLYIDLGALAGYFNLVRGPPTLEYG
Source text: as §1

[4] = target: 320 wild-type protein kinases (Homo sapiens, UniProt Q86Z02); details: singlicate
Sequence of 320 wild-type protein kinases (Homo sapiens, UniProt Q86Z02) (Q86Z02 whole entry): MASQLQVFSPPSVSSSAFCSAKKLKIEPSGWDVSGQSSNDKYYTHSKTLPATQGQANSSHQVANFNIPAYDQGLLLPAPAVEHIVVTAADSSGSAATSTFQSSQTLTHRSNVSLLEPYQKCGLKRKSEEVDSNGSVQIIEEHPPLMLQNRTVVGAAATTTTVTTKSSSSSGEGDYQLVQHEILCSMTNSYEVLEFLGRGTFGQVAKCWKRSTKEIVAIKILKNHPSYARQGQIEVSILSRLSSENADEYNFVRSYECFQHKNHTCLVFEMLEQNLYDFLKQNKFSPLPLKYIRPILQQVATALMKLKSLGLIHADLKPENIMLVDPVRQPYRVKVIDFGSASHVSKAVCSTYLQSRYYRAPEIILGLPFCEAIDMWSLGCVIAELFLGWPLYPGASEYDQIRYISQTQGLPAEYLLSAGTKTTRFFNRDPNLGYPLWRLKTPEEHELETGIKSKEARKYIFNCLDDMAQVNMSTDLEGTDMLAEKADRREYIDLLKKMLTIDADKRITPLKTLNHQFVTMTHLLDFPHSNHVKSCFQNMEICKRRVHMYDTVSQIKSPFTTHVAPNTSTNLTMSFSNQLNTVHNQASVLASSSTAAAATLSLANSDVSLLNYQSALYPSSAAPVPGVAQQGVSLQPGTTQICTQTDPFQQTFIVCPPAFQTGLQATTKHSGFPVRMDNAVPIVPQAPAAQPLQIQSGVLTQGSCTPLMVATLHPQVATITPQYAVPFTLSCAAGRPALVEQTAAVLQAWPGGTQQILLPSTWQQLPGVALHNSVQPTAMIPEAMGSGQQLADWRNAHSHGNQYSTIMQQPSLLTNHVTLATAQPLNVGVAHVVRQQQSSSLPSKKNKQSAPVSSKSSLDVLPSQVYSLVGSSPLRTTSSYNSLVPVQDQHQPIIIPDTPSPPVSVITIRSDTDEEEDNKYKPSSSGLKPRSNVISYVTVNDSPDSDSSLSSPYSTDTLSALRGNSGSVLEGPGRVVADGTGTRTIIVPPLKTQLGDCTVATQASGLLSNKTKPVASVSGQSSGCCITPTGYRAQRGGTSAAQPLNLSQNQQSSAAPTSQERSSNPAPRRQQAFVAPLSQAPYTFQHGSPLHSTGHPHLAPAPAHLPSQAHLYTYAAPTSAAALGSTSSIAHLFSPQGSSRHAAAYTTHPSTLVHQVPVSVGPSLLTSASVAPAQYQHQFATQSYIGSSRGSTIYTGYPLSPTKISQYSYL
Source text: as §1

[5] = target: T2, 320 wild-type protein kinases (Homo sapiens, UniProt Q9NWZ3); details: IRAK4 (untagged), singlicate
T2 sequence (Q9NWZ3 1-460): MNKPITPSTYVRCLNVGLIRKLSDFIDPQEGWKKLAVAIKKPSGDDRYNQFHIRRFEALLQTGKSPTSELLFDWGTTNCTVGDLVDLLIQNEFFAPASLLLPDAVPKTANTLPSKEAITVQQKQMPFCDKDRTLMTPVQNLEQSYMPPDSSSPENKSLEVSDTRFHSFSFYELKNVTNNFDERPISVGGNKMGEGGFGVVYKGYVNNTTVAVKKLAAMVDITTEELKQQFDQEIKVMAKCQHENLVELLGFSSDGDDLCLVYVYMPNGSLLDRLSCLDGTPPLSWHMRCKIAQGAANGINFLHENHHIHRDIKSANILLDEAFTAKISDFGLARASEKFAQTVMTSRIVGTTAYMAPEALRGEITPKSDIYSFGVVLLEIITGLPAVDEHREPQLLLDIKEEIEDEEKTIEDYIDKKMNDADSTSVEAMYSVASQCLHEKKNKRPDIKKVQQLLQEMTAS
Source text: as §1

[6] = target: 320 wild-type protein kinases (Homo sapiens, UniProt P07949); details: kinase RET, singlicate
Sequence of 320 wild-type protein kinases (Homo sapiens, UniProt P07949) (P07949 29-1114): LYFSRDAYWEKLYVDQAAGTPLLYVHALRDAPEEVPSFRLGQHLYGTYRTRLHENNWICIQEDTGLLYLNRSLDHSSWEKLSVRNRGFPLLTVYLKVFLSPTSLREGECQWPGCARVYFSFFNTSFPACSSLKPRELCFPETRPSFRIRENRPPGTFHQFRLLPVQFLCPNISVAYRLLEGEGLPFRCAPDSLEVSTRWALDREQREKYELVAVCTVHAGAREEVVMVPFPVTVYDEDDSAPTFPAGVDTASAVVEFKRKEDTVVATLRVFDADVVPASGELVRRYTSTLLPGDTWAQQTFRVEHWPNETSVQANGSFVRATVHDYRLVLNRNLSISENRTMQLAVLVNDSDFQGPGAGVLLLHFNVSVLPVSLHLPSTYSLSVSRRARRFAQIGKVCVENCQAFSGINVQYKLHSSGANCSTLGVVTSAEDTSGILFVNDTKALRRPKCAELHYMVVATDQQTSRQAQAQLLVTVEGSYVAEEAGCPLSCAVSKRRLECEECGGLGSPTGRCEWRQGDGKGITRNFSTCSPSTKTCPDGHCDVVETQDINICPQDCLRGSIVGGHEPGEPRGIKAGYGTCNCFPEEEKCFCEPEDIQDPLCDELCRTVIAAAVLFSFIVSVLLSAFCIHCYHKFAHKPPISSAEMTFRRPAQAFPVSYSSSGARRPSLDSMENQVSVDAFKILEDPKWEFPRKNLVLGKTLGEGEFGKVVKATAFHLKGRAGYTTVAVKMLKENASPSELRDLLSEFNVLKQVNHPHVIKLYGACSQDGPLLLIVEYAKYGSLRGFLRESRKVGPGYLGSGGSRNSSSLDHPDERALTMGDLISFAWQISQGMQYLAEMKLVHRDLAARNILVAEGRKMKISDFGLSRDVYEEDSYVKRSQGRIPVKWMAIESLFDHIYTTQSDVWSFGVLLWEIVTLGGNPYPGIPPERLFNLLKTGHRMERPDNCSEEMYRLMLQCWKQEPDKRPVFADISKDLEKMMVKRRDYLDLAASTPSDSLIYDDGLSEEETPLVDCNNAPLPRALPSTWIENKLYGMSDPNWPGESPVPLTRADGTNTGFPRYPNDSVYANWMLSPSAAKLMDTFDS
Source text: as §1

[7] = target: T3, 320 wild-type protein kinases (Homo sapiens, UniProt Q8TDC3); details: singlicate
T3 sequence (Q8TDC3 1-778): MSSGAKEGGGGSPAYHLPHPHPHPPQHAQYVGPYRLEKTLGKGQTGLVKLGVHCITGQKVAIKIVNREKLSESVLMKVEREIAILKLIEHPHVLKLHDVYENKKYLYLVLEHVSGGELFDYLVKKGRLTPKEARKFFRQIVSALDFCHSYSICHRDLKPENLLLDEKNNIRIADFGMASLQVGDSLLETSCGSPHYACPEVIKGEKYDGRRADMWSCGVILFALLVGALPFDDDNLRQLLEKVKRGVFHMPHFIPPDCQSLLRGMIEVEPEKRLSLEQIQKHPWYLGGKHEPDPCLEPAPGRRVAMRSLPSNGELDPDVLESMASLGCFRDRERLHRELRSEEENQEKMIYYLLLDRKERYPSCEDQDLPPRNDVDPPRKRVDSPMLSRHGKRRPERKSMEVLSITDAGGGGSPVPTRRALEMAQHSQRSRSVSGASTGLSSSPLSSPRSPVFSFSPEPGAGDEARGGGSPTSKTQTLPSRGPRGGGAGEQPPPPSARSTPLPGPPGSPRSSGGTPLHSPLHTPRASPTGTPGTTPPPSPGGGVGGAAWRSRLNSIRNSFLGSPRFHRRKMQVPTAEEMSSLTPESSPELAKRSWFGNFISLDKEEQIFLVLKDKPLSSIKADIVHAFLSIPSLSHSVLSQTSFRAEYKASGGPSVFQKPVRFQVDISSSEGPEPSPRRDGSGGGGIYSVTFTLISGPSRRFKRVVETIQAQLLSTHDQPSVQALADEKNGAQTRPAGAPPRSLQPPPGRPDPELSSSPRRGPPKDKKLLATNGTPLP
Source text: as §1

Sequence of 320 wild-type protein kinases (Homo sapiens, UniProt P12931) (P12931 whole entry): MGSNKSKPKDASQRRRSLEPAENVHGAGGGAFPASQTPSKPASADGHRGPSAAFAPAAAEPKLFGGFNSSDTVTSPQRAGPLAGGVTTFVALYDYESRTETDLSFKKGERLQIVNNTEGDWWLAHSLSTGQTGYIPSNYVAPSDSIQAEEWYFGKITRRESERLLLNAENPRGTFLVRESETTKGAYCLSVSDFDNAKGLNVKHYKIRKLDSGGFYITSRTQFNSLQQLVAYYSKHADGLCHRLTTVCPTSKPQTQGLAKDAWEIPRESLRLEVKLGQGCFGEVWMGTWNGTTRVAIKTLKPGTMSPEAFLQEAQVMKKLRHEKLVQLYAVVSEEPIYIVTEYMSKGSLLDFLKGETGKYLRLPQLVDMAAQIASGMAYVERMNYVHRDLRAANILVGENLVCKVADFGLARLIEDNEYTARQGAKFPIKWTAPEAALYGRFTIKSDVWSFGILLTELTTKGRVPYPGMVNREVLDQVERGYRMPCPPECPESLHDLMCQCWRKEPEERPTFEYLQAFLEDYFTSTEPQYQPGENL

Row | Structure (SMILES) | Residual activity, SRC (GST-HIS-tag) ([1]; assay conc. 1.0E-06 M) | Residual activity, SRC (GST-HIS-tag) ([1]; assay conc. 1.0E-07 M) | Residual activity ([2]; MEKK3, 1.0E-06 M) | Residual activity ([2]; MEKK3, 1.0E-07 M) | Residual activity ([3]; 1.0E-06 M) | Residual activity ([3]; 1.0E-07 M) | Residual activity ([4]; HIPK1, 1.0E-06 M) | Residual activity ([4]; HIPK1, 1.0E-07 M) | Residual activity ([5]; 1.0E-06 M) | Residual activity ([5]; 1.0E-07 M) | Residual activity, RET ([6]; assay conc. 1.0E-06 M) | Residual activity, RET ([6]; assay conc. 1.0E-07 M) | Residual activity ([7]; BRSK1, 1.0E-06 M) | Residual activity ([7]; BRSK1, 1.0E-07 M)
1 | C#Cc1cc(Nc2ncnc3cc(I)ccc23)ccc1Cl [Compound 41] | 86 % of control | 108 % of control | 107 % of control | 106 % of control | 91 % of control | 91 % of control | 87 % of control | 98 % of control | 84 % of control | 96 % of control | 85 % of control | 102 % of control | 91 % of control | 100 % of control
2 | C#Cc1cc(Nc2ncnc3cc(OC)c(OC)cc23)ccc1Cl [Compound 45] | 90 % of control | 100 % of control | 117 % of control | 115 % of control | 123 % of control | 98 % of control | 80 % of control | 79 % of control | 69 % of control | 90 % of control | 51 % of control | 101 % of control | 97 % of control | 89 % of control
